Data set [1] is described as follows: Plasma binding of 5-MIAA. The class given is in vitro ADME. As to conditions: for fraction unbound: human, plasma. How it is done: (§1) Binding to human plasma protein was determined. Reported are the unbound fraction (fu) for three replicates as well as the mean unbound fraction, the standard deviation and the mean % recovery (Table 8).
Data set [2] concerns human plasma protein. Nature of the data set: Plasma binding of 5-MIAA. The class given is in vitro ADME. How it is done: as §1
The test system of data set [3] is human hepatocytes (Hμrel HumanPool co-culture). In words: Metabolic stability in Hμrel human hepatocyte co-culture.
A short description of data set [4]: LC-MS/MS of 5-MeO-DMT, bufotenine and 5-MIAA in urine, serum and breastmilk of lactating PPD patient; infant exposure estimates. As to conditions: for Breastmilk concentration / Serum concentration / Urine concentration: second patient. From the text: When determining the potential impact of maternal drug administration on a breastfed infant, it is standard practice to calculate the Relative Infant Dose (RID) (Bennett, P. N., and L. J. Notarianni. “Risk from drugs in breast milk: an analysis by relative dose.” Br J Clin Pharmacol 42.5 (1996): P673-4). The RID is the dosage (in μg/kg/day) the infant is exposed to by the intake of breast milk, divided by the dosage (in μg/kg/day) the mother receives.
Using estimates for daily intake of breast milk and the number of feeds as well as the measured breast milk concentrations the exposure of the infant can be determined.
For example, a published estimate for daily intake of breast milk as a function of infant weight is 150 ml/kg/day. To model the exposure, it is assumed that an infant of 5 kg is fed three times over 24 hours, receiving 250 ml breast milk each time.
The second patient was lactating, and, per the clinical trial protocol, breastmilk samples were collected pre-dosing and at multiple timepoints after administration of the last dose. […] Similar analyses were carried out on patient serum and urine samples.

For data set [5], the system named is human hepatocytes. In words: Metabolite identification in human hepatocyte suspension. As to conditions: 5-MeO-DMT free base 10 μM, incubated up to 120 minutes. Here is the method:
For incubations with cryopreserved hepatocytes, the 2 mM stock solution was diluted with Leibovitz L-15 medium to a concentration of 20 μM or 2 μM. An aliquot (250 μL) of the 20 μM and 2 μM test substance formulations was added to each hepatocyte incubation sample (250 μL), as appropriate, so that the final test substance concentration in the incubations was 10 μM or 1 μM, respectively, and incubations contained less than 1% (v/v) solvent.
Incubations were performed at ca. 37° C. in a shaking water bath (total incubation volume 0.5 mL). For 1 μM, incubations were terminated after 0, 5, 10, 20, 30, 60 and 120 minutes, by the addition of ice-cold acetonitrile (0.5 mL).
The samples were vortex mixed and centrifuged at ca 13,000 rpm for 10 minutes at room temperature. Following centrifugation, the protein-free supernatants were removed for analysis.
Blank control incubations were carried out with Leibovitz L-15 medium in place of the test substance. No cells control samples were performed with Leibovitz L-15 medium in place of hepatocytes. Aliquots of the blank control samples were taken at 120 minutes, while no cells control samples were taken at 0, 30 and 120 for 1 μM incubations and at 0 and 120 minutes for 10 μM incubations.
All 1 μM incubations were performed in duplicate, while all 10 μM incubations were performed in singlet. All samples were stored at −80° C. (nominal) prior to analysis.
Prior to sample analysis a 100 μL aliquot of each sample was evaporated to near dryness under a steady stream of nitrogen at room temperature, and subsequently reconstituted in 50 μL of mobile phase A (0.1% formic acid in water). Each sample (0, 30 and 120-minute, 10 μM) was analysed using accurate mass LC-MS to determine relative levels of parent compound at each time-point, and determine the profile of metabolites formed. Appropriate blank and control samples were also analysed. The 10 and 60-minute, 10 μM incubation samples were not analysed and were stored at −80° C. (nominal). […]

Data set [6] is described as follows: Pharmacokinetics of 5-MeO-DMT and bufotenine after single inhaled dose. The format is in vivo, human. As to conditions: from 15 min onwards after 5-MeO-DMT inhalation; LLOQ. Here is the method: Blood samples were obtained at 1; 2; 4; 7; 10; 15; 20; 30; 45 min and 1; 1.5; 2; 3; 4 hours after administration.
PK parameters were generated by algebraic analysis of the concentration versus time plots for each individual. The analysis was carried out using the software Phoenix WinNonlin 6.3.

[7] abbreviates: 5 kg infant, three feeds of 250 ml.

Read-outs that look alike come from different tables or passages of the source.

`CC(=O)CC(c1ccccc1)c1c(O)c2ccccc2oc1=O` (stereo not shown) [Warfarin, reference compound]: in data set [1] (human plasma), the recovery was found to be 78.1%. Also, the fraction unbound in data set [1] (read-out: Unbound fraction (fu), Replicate 1) was determined as 0.0418; in data set [1] (read-out: Unbound fraction (fu), Replicate 2) it was 0.0356; in data set [1] (read-out: Unbound fraction (fu), Replicate 3), 0.0358; in data set [1] (three replicates, read-out: Mean fu) it was 0.0377.
Take 5-Methoxyindole acetic acid [5-MIAA]: in data set [2], the “Mean % Recovery” value came to 81.4%; the “Plasma binding (mean fraction unbound)” value was about 50%; the “Unbound fraction (fu), Replicate 1” value stood at 0.499; the “Unbound fraction (fu), Replicate 2” value worked out at 0.462. Besides, the “Unbound fraction (fu), Replicate 3” value in data set [2] is 0.544. This compound came in with a Mean fu in data set [2] (three replicates) of 0.502. Besides, the “Disappearance with stromal cell controls” value in data set [3] (0-72 h) is “no disappearance”. In addition, the “Remaining abundance after 72h” value in data set [3] (hepatocytes, 1 and 10 μM) is given as 75-82%. Further, the “In vitro intrinsic clearance” value in data set [3] (human hepatocytes, 1 μM) is 0.15 μl/min/million cells. In data set [4] (setting [7]), the “DID of 5-MIAA per kg” value is 0.001377 mg/kg/day and the “DID, total exposure of the infant to 5-MIAA” value is 0.006886 mg/day. For the same compound, in data set [4] (1.0 hrs after last dose), the Breastmilk concentration is 13945.2 pg/mL and the Serum concentration was 263.092 ng/mL. Further, in data set [4] (2.5 hrs after last dose), the Breastmilk concentration was 13240.9 pg/mL and the Serum concentration was 101.9947 ng/mL. In addition, in data set [4] (8.5 hrs after last dose), the Breastmilk concentration was 359.4 pg/mL and the Urine concentration was 291651 pg/mL. Also, in data set [4] (24.0 hrs after last dose), the Breastmilk concentration is 35.5 pg/mL, the Serum concentration was 0.2706 ng/mL and the Urine concentration was 18649 pg/mL. Moreover, in data set [4] (120.0 hrs after last dose), the Breastmilk concentration result is “BLQ (Below limit of quantification. The lower limit of quantification is 25 pg/ml for both 5-MeO-DMT and 5-MIAA in both serum and breastmilk; it is 25 pg/ml in urine for 5-MeO-DMT and 250 pg/ml for 5-MIAA in urine.)”; the Serum concentration was 0.0671 ng/mL; the Urine concentration is 9444 pg/mL. Further, in data set [4] (−24.0 hrs (pre-dosing)), the Breastmilk concentration result was “BLQ (Below limit of quantification. The lower limit of quantification is 25 pg/ml for both 5-MeO-DMT and 5-MIAA in both serum and breastmilk; it is 25 pg/ml in urine for 5-MeO-DMT and 250 pg/ml for 5-MIAA in urine.)”; the Serum concentration was 0.051 ng/mL; the Urine concentration was 8113 pg/mL.
Take `COc1ccc2[nH]cc(CC[N+](C)(C)[O-])c2c1` [5-MeO-DMT-N-oxide]: the “Relative Proportion of compounds identified” value in data set [5] turned out to be 1%.
As to `CN(C)CCc1c[nH]c2ccc(O)cc12` [Bufotenine], the “Blood concentration of metabolite bufotenine” value in data set [6] is under 0.025 ng/mL. The “Relative Proportion of compounds identified” value in data set [5] is reported as 5%. For the same compound, the Breastmilk concentration result was “BLQ (Below limit of quantification. The lower limit of quantification is 25 pg/ml for both 5-MeO-DMT and 5-MIAA in both serum and breastmilk; it is 25 pg/ml in urine for 5-MeO-DMT and 250 pg/ml for 5-MIAA in urine.)” in data set [4] (1.0 hrs after last dose); “BLQ (Below limit of quantification. The lower limit of quantification is 25 pg/ml for both 5-MeO-DMT and 5-MIAA in both serum and breastmilk; it is 25 pg/ml in urine for 5-MeO-DMT and 250 pg/ml for 5-MIAA in urine.)” in data set [4] (2.5 hrs after last dose); “BLQ (Below limit of quantification. The lower limit of quantification is 25 pg/ml for both 5-MeO-DMT and 5-MIAA in both serum and breastmilk; it is 25 pg/ml in urine for 5-MeO-DMT and 250 pg/ml for 5-MIAA in urine.)” in data set [4] (8.5 hrs after last dose); “BLQ (Below limit of quantification. The lower limit of quantification is 25 pg/ml for both 5-MeO-DMT and 5-MIAA in both serum and breastmilk; it is 25 pg/ml in urine for 5-MeO-DMT and 250 pg/ml for 5-MIAA in urine.)” in data set [4] (24.0 hrs after last dose); “BLQ (Below limit of quantification. The lower limit of quantification is 25 pg/ml for both 5-MeO-DMT and 5-MIAA in both serum and breastmilk; it is 25 pg/ml in urine for 5-MeO-DMT and 250 pg/ml for 5-MIAA in urine.)” in data set [4] (120.0 hrs after last dose); “BLQ (Below limit of quantification. The lower limit of quantification is 25 pg/ml for both 5-MeO-DMT and 5-MIAA in both serum and breastmilk; it is 25 pg/ml in urine for 5-MeO-DMT and 250 pg/ml for 5-MIAA in urine.)” in data set [4] (−24.0 hrs (pre-dosing)). For the same compound, the Serum concentration entry in data set [4] (1.0 hrs after last dose) is “BLQ (Below limit of quantification. The lower limit of quantification is 25 pg/ml for both 5-MeO-DMT and 5-MIAA in both serum and breastmilk; it is 25 pg/ml in urine for 5-MeO-DMT and 250 pg/ml for 5-MIAA in urine.)”; in data set [4] (2.5 hrs after last dose), “BLQ (Below limit of quantification. The lower limit of quantification is 25 pg/ml for both 5-MeO-DMT and 5-MIAA in both serum and breastmilk; it is 25 pg/ml in urine for 5-MeO-DMT and 250 pg/ml for 5-MIAA in urine.)”; in data set [4] (24.0 hrs after last dose) it was “BLQ (Below limit of quantification. The lower limit of quantification is 25 pg/ml for both 5-MeO-DMT and 5-MIAA in both serum and breastmilk; it is 25 pg/ml in urine for 5-MeO-DMT and 250 pg/ml for 5-MIAA in urine.)”; in data set [4] (120.0 hrs after last dose) it was “BLQ (Below limit of quantification. The lower limit of quantification is 25 pg/ml for both 5-MeO-DMT and 5-MIAA in both serum and breastmilk; it is 25 pg/ml in urine for 5-MeO-DMT and 250 pg/ml for 5-MIAA in urine.)”; in data set [4] (−24.0 hrs (pre-dosing)) it was “BLQ (Below limit of quantification. The lower limit of quantification is 25 pg/ml for both 5-MeO-DMT and 5-MIAA in both serum and breastmilk; it is 25 pg/ml in urine for 5-MeO-DMT and 250 pg/ml for 5-MIAA in urine.)”. For the same compound, the Urine concentration entry is “BLQ (Below limit of quantification. The lower limit of quantification is 25 pg/ml for both 5-MeO-DMT and 5-MIAA in both serum and breastmilk; it is 25 pg/ml in urine for 5-MeO-DMT and 250 pg/ml for 5-MIAA in urine.)” in data set [4] (8.5 hrs after last dose); “BLQ (Below limit of quantification. The lower limit of quantification is 25 pg/ml for both 5-MeO-DMT and 5-MIAA in both serum and breastmilk; it is 25 pg/ml in urine for 5-MeO-DMT and 250 pg/ml for 5-MIAA in urine.)” in data set [4] (24.0 hrs after last dose); “BLQ (Below limit of quantification. The lower limit of quantification is 25 pg/ml for both 5-MeO-DMT and 5-MIAA in both serum and breastmilk; it is 25 pg/ml in urine for 5-MeO-DMT and 250 pg/ml for 5-MIAA in urine.)” in data set [4] (120.0 hrs after last dose); “BLQ (Below limit of quantification. The lower limit of quantification is 25 pg/ml for both 5-MeO-DMT and 5-MIAA in both serum and breastmilk; it is 25 pg/ml in urine for 5-MeO-DMT and 250 pg/ml for 5-MIAA in urine.)” in data set [4] (−24.0 hrs (pre-dosing)).

(Values after patent US20240108601A1, “TREATMENT OF MENTAL DISORDERS” (GH Research Ireland Limited, priority 2022, published 2024).)
